Results published in patent publication US20220268782A1, “METHODS FOR PREDICTING AND TREATING CARDIAC DYSFUNCTION” (INSERM (INSTITUT NATIONAL DE LA SANTÉ EAT DE LA RECHERCHE …, priority 2019, published 2022).

What was measured:
C2C12 myoblasts = test: Oxidative stress in C2C12 cells (CellROX cytosolic superoxide, MitoSOX mitochondrial superoxide, GSH); type: cell-based
Protocol: C2C12 (ATCC® CRL-1772™) myoblasts maintained in DMEM supplemented with L-glutamine (2 mM), penicillin/streptomycin (1%) and 5% fetal bovine serum (FBS) were seeded either at a density of 5×10^4 cells (<50%) per well in 24-well plates or 10^4 cells in 4-well chamber slides. Cells were with L-phenylalanine (1-10 mM)+BH4 (10 μM) and incubation with increasing concentrations of N-acetylcysteine (0.5, 2.5, 5 mM) vs. vehicle overnight as indicated. Cells were analysed for oxidative stress with MitoSOX™ (mitochondrial superoxide; 5 μM, ThermoFisher Scientific), CellROX™ (cytosolic superoxide; 5 μM, ThermoFisher Scientific), gene or protein expression, or various metabolites (see below).
Levels of reduced glutathione (GSH; ThermoFisher), phenylalanine (BioVision) and tyrosine (BioVision) were determined from cells or plasma, with respective agents/kits following the manufacturer's recommendations. Specifically, GSH levels were estimated with the aid of ThiolTracker™ Violet fluorescent probe (ThermoFisher). Plasma and liver phenylalanine levels were determined using an enzyme-coupled, fluorometric method (BioVision). Briefly, samples were deproteinized via trichloroacetate precipitation, neutralised, tyrosinase-treated (to remove tyrosine that may interfere) and diluted to fit in the standard curve. Fluorescence reading took place at 587 nm after excitation at 535 nm. Levels of tyrosine in cells or conditioned media were determined after deproteinization using 10 kDa cut-off columns with an enzyme-coupled, colorimetric method with reading at 491 nm (BioVision).

[1] = tested on: primary adult rat cardiomyocytes; test: Immunoblot of p21 in primary adult rat cardiomyocytes; type: cell-based; settings: FIG. 1g
Protocol: Male Spargue Dawley rats (9 weeks, 300-350 g) were anesthetised with ketamine and xylazine (100 and 10 mg/kg, respectively) with heparin added (100 UI/kg). Hearts were excised and retrogradely perfused with an oxygenated ([…]) perfusion buffer consisting of NaCl 113 mM, KCl 4.7 mM, KH2PO4 0.6 mM, Na2HPO4 0.6 mM, MgSO4-7H2O 1.2 mM, NaHCO3 12 mM, KHCO3 10 mM, HEPES 10 mM, Taurine 30 mM, phenol red 0.032 mM, D-glucose 5.5 mM, 2,3-butanedionemonoxime 10 mM, pH 7.4) for 2 minutes to wash out the blood from the coronary arteries. Then hearts were perfused with a digestion buffer (perfusion buffer supplemented with 0.1 mg/mL liberase, 0.14 mg/mL trypsine-EDTA and 12.5 μM Ca^2+) for 10-12 minutes. Hearts were then placed in a stopping buffer (perfusion buffer supplemented with 10% NBCS and 12.5 μM Ca^2+). Atria and right ventricles were removed. Left ventricles were dissected into small fragments, then subjected to successive aspirations-reflux. Digested ventricles were filtered through a 250 μm cell strainer. […]
Cells were washed briefly with ice-cold 1×PBS, scraped in 400 μL T-PER lysis buffer (ThermoFisher) supplemented with 0.1 mM phenylmethylsulphonyl fluoride (PMSF) and protease/phosphatase inhibitor cocktail tablet (ThermoFisher). […] Protein concentrations were determined with Bradford assay (Biorad) and lysates were diluted to equal concentration with lysis buffer. […]

Compound	cytosolic superoxide levels under PA treatment (C2C12 myoblasts; PA plus co-treatment (BH4 10 μM or NAC), FIG. 1f)	reduced glutathione (GSH) levels under PA treatment (C2C12 myoblasts; PA plus co-treatment, data not shown)	PA-induced p21 protein ([1]; PA 5 mM + BH4 10 μM)	cytosolic superoxide levels (CellROX probe) (C2C12 myoblasts; as a function of PA concentration, FIG. 1e)	p21 protein ([1]; PA 5 mM, 4-hour incubation)
CC(O)C(O)C1CNc2nc(N)[nH]c(=O)c2N1 (centres unmarked) [BH4, 2-amino-6-(1,2-dihydroxypropyl)-5,6,7,8-tetrahydro-3H-pteridin-4-one]	normalized	restored normal	rescue	–	–
N[C@@H](Cc1ccccc1)C(=O)O [PA, (S)-2-Amino-3-phenylpropanoic acid]	–	–	–	incrementally increased	selective induction
